One test concerns the target T1, RAMP2-CLR (AM1 receptor) (Homo sapiens, UniProt O60895+Q16602).
T1 construct: FLAG; expressed in transfected cells; host or cells: HEK-293 or HEK-293S cells, transient transfection, 1:1 RAMP:CLR
Description: S. cerevisiae growth assay, GPA1/Gαq chimera, RAMP2 + CLR. In kind it is cell-based. The settings on record: percentage of yeast strain MMY11 (lacking GPA1); 24-h; mean ± S.E., n = 6. The procedure:
FIGURE 7. […] Reporter gene activity was determined following 24-h stimulation. All data are expressed as percentage of the maximum response observed in yeast strain MMY11 and are means ± S.E. of n individual data sets. D, Bar chart showing the efficacy of each ligand for each RAMP-CLR combination at the Gαq chimera determined via application of the operational model of receptor agonism (Ref. [34] and Table 1). Data were determined as statistically different from the cognate ligand for each receptor (***, p < 0.001; ****, p < 0.0001) using one-way ANOVA with Bonferroni's post-test. E, signaling bias plots were calculated as ΔΔ(τ/Ka) values on a logarithmic scale for each ligand and for each chimera G protein for the three individual RAMP-CLR complexes.
General yeast procedures were performed as described previously ([22], [24]). […] Receptor signaling was measured using the yeast growth assay as described previously ([24]). […] A fluorescein signal was detected as an increase in fluorescence (excitation wavelength = 485 nm, emission wavelength = 535 nm) as a measure of growth. Different concentrations of ligand (0.01 nM–100 μM) were assayed using 96-well plates, and fluorescence was detected using a Tecan Infinite M200 microplate reader (Tecan Ultra Evolution, Reading, UK) or a Mithras LB 940 microplate reader (Berthold Technologies, Harpenden, UK) for 20 h. […]

The target of another test is T2, RAMP3-CLR (AM2 receptor) (Homo sapiens, UniProt O60896+Q16602).
T2 construct: FLAG; expressed in transfected cells; host or cells: HEK-293 or HEK-293S cells, transient transfection, 1:1 RAMP:CLR
T2 sequence (Q16602 23-461): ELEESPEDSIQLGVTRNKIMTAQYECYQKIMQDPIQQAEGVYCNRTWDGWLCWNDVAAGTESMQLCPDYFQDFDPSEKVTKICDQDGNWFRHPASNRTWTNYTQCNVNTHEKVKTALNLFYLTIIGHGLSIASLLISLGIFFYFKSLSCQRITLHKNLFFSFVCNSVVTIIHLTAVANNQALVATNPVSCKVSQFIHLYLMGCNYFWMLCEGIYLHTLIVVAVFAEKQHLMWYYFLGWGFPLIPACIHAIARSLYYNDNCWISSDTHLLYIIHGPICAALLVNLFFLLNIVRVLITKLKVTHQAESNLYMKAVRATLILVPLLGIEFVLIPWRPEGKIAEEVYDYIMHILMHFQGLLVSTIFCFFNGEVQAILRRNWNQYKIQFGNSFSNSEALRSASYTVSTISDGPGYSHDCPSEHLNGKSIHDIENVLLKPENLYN
T2 sequence (O60896 24-148): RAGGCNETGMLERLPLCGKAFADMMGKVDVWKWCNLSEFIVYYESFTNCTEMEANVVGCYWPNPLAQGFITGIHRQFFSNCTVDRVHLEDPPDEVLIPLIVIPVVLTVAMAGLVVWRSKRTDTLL
As to the kind of experiment: S. cerevisiae growth assay, GPA1/Gαs chimera, RAMP3 + CLR. In kind it is cell-based. The settings on record: percentage of yeast strain MMY11 (lacking GPA1); 20 h; mean ± S.E., n = 8. Here is the method: FIGURE 1. […] Reporter gene activity was determined following 20 h of stimulation with each ligand. Data are expressed as a percentage of the maximum response observed in yeast strain MMY11 (lacking GPA1) and are means ± S.E. of n individual data sets. […] Data were determined as statistically different from the cognate ligand for each receptor (*, p < 0.05; **, p < 0.01; ***, p < 0.001) using a one-way ANOVA with Bonferroni's post-test.
General yeast procedures were performed as described previously ([22], [24]). The human CLR was introduced into yeast cells under the control of the PGK promoter using a plasmid containing ura3 (pDT-PGK). […] Receptor signaling was measured using the yeast growth assay as described previously ([24]). […] A fluorescein signal was detected as an increase in fluorescence (excitation wavelength = 485 nm, emission wavelength = 535 nm) as a measure of growth. Different concentrations of ligand (0.01 nM–100 μM) were assayed using 96-well plates, and fluorescence was detected using a Tecan Infinite M200 microplate reader (Tecan Ultra Evolution, Reading, UK) or a Mithras LB 940 microplate reader (Berthold Technologies, Harpenden, UK) for 20 h.
Data analysis for cAMP assays was performed in GraphPad Prism 6.0f (San Diego, CA). […] To quantitate the ligand-dependent response in the yeast system, a strain lacking GPA1 (MMY11), grown in rich medium, was used as a standard ([72]). […]

T1 sequence (Q16602 23-461): as the sequence (Q16602 23-461) above
T1 sequence (O60895 43-175): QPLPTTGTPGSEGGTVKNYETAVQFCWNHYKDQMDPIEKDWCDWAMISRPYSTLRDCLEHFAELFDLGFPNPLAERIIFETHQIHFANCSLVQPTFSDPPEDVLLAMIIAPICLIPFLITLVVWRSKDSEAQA

As to `CSCC[C@H](NC(=O)[C@H](CC(C)C)NC(=O)[C@H](CCC(N)=O)NC(=O)[C@H](Cc1c[nH]c2ccccc12)NC(=O)[C@H](CC(C)C)NC(=O)[C@H](CCCNC(=N)N)NC(=O)[C@H](Cc1c[nH]cn1)NC(=O)[C@H](CO)NC(=O)[C@H](CC(C)C)NC(=O)[C@H](CC(N)=O)NC(=O)[C@H](CCC(N)=O)NC(=O)[C@@H](NC(=O)[C@H](CCC(N)=O)NC(=O)[C@@H]1CSSC[C@H](NC(=O)CNC(=O)[C@@H](NC(=O)[C@H](CCCNC(=N)N)NC(=O)[C@H](CC(C)C)NC(=O)[C@H](CC(C)C)NC(=O)[C@H](CCC(N)=O)NC(=O)[C@H](C)NC(=O)[C@H](CCC(N)=O)NC(=O)[C@@H](N)[C@@H](C)O)C(C)C)C(=O)N[C@@H](C(C)C)C(=O)N[C@@H](CC(C)C)C(=O)NCC(=O)N[C@@H]([C@@H](C)O)C(=O)N1)C(C)C)C(=O)NCC(=O)N1CCC[C@H]1C(=O)N[C@@H](C)C(=O)NCC(=O)N[C@@H](CCCNC(=N)N)C(=O)N[C@@H](CCC(N)=O)C(=O)N[C@@H](CC(=O)O)C(=O)N[C@@H](CO)C(=O)N[C@@H](C)C(=O)N1CCC[C@H]1C(=O)N[C@H](C(=O)N[C@@H](CC(=O)O)C(=O)N1CCC[C@H]1C(=O)N[C@@H](CO)C(=O)N[C@@H](CO)C(=O)N1CCC[C@H]1C(=O)N[C@@H](Cc1c[nH]cn1)C(=O)N[C@@H](CO)C(=O)N[C@@H](Cc1ccc(O)cc1)C(N)=O)C(C)C` [AM2, adrenomedullin 2], the Emax on RAMP2-CLR (AM1 receptor) was found to be 11.3 ± 1.3%.
In the case of `CC[C@H](C)[C@H](NC(=O)[C@H](CCC(N)=O)NC(=O)[C@H](Cc1c[nH]cn1)NC(=O)[C@H](C)NC(=O)[C@H](CC(C)C)NC(=O)[C@H](CCCCN)NC(=O)[C@H](CCC(N)=O)NC(=O)[C@@H](NC(=O)[C@@H](NC(=O)[C@@H]1CSSC[C@H](NC(=O)CNC(=O)[C@H](Cc2ccccc2)NC(=O)[C@H](CO)NC(=O)[C@H](CCCNC(=N)N)NC(=O)[C@H](CC(C)C)NC(=O)CNC(=O)[C@H](CCC(N)=O)NC(=O)[C@H](Cc2ccccc2)NC(=O)[C@H](CC(N)=O)NC(=O)[C@H](CC(N)=O)NC(=O)[C@H](CCSC)NC(=O)[C@H](CO)NC(=O)[C@H](CCC(N)=O)NC(=O)[C@H](CCCNC(=N)N)NC(=O)[C@@H](N)Cc2ccc(O)cc2)C(=O)N[C@@H](CCCNC(=N)N)C(=O)N[C@@H](Cc2ccccc2)C(=O)NCC(=O)N[C@@H]([C@@H](C)O)C(=O)N1)[C@@H](C)O)C(C)C)C(=O)N[C@@H](Cc1ccc(O)cc1)C(=O)N[C@@H](CCC(N)=O)C(=O)N[C@@H](Cc1ccccc1)C(=O)N[C@H](C(=O)N[C@@H](CC(=O)O)C(=O)N[C@@H](CCCCN)C(=O)N[C@@H](CC(=O)O)C(=O)N[C@@H](CCCCN)C(=O)N[C@@H](CC(=O)O)C(=O)N[C@@H](CC(N)=O)C(=O)N[C@H](C(=O)N[C@@H](C)C(=O)N1CCC[C@H]1C(=O)N[C@@H](CCCNC(=N)N)C(=O)N[C@@H](CO)C(=O)N[C@@H](CCCCN)C(=O)N[C@H](C(=O)N[C@@H](CO)C(=O)N1CCC[C@H]1C(=O)N[C@@H](CCC(N)=O)C(=O)NCC(=O)N[C@@H](Cc1ccc(O)cc1)C(N)=O)[C@@H](C)CC)C(C)C)[C@@H](C)O` [AM, adrenomedullin], at RAMP3-CLR (AM2 receptor), the Emax was determined as 25.5 ± 3.6%.

For the origin of these results see PMC5063977 (The Journal of Biological Chemistry, 2016).
